Measurements from US20260240847A1, “COMPOUNDS WITH ANTI-TUMOR ACTIVITY AGAINST CANCER CELLS BEARING TYROSINE KINASE INHIBITOR RESISTANT EGFR MUTATIONS” (BOARD OF REGENTS, THE UNIVERSITY OF TEXAS SYSTEM, priority 2019, published 2026).

Legend:
Assay in all cases: Ba/F3 cell viability, Cell Titer Glo
EGFR E709K L858R = EGFR E709K L858R (Homo sapiens, UniProt P00533, E709K/L858R); details: read-out: IC50 Values; Ba/F3 cells expressing EGFR E709K L858R, 72 hours
Protocol: (§1) Cell viability was determined by the Cell Titer Glo assay.
(§2) Briefly, stable Ba/F3 cell lines were generated by retroviral transduction of Ba/F3 cell line for 12 hours. […] Three days after transduction, 2 μg/ml puromycin (Invitrogen) was added to the RPMI media. Cell lines were then grown in the absence of IL-3 for two weeks and cell viability was assessed every three days using the Cell Titer Glo assay (Progema).
(§3) Briefly, 2000-3000 cells per well were plated in 384-well plates (Greiner Bio-One) in technical triplicate. Cells were treated with seven different concentrations of tyrosine kinase inhibitors or vehicle alone at a final volume of 40 μL per well. After 3 days, 11 μL of Cell Titer Glo was added to each well. Plates were shaken for 15 minutes, and bioluminescence was determined using a FLUOstar OPTIMA multi-mode micro-plate reader (BMG LABTECH). Bioluminescence values were normalized to DMSO treated cells, and normalized values were plotted in GraphPad Prism using non-linear regression fit to normalized data with a variable slope.

EGFR L718Q = EGFR L718Q (Homo sapiens, UniProt P00533, L718Q); details: read-out: IC50 Values; Ba/F3 cells expressing EGFR L718Q, 72 hours
Protocol: as §1, §2, §3

EGFR G719A/R776C = EGFR G719A/R776C (Homo sapiens, UniProt P00533, G719A/R776C); details: read-out: IC50 Values; Ba/F3 cells expressing EGFR G719A/R776C, 72 hours
Protocol: as §1, §3

EGFR G724S = EGFR G724S (Homo sapiens, UniProt P00533, G724S); details: read-out: IC50 Values; Ba/F3 cells expressing EGFR G724S, 72 hours
Protocol: as §1, §2, §3

EGFR l740duplPVAK = EGFR l740duplPVAK (Homo sapiens, UniProt P00533, DUP740-745); details: read-out: IC50 Values; Ba/F3 cells expressing EGFR l740duplPVAK, 72 hours
Protocol: as §1, §2, §3

[1] = target: EGFR L747 K754del insATSPE (Homo sapiens, UniProt P00533, DEL747-749/K754E); details: read-out: IC50 Values; Ba/F3 cells expressing EGFR L747 K754del insATSPE, 72 hours
Protocol: as §1, §2, §3

EGFR S768dupSVD = EGFR S768dupSVD (Homo sapiens, UniProt P00533, DUP768-770); details: read-out: IC50 Values; Ba/F3 cells expressing EGFR S768dupSVD, 72 hours
Protocol: as §1, §2, §3

EGFR D770insNPG = EGFR D770insNPG (Homo sapiens, UniProt P00533, INS770NPG); details: read-out: IC50 Values; Ba/F3 cells expressing EGFR D770insNPG, 72 hours
Protocol: as §1, §2, §3

EGFR N771dupN G724S = EGFR N771dupN G724S (Homo sapiens, UniProt P00533, DUP771-771/G724S); details: read-out: IC50 Values; Ba/F3 cells expressing EGFR N771dupN G724S, 72 hours
Protocol: as §1, §2, §3

EGFR L833F = EGFR L833F (Homo sapiens, UniProt P00533, L833F); details: read-out: IC50 Values; Ba/F3 cells expressing EGFR L833F, 72 hours
Chain of EGFR L833F (P00533 25-1210 L833F): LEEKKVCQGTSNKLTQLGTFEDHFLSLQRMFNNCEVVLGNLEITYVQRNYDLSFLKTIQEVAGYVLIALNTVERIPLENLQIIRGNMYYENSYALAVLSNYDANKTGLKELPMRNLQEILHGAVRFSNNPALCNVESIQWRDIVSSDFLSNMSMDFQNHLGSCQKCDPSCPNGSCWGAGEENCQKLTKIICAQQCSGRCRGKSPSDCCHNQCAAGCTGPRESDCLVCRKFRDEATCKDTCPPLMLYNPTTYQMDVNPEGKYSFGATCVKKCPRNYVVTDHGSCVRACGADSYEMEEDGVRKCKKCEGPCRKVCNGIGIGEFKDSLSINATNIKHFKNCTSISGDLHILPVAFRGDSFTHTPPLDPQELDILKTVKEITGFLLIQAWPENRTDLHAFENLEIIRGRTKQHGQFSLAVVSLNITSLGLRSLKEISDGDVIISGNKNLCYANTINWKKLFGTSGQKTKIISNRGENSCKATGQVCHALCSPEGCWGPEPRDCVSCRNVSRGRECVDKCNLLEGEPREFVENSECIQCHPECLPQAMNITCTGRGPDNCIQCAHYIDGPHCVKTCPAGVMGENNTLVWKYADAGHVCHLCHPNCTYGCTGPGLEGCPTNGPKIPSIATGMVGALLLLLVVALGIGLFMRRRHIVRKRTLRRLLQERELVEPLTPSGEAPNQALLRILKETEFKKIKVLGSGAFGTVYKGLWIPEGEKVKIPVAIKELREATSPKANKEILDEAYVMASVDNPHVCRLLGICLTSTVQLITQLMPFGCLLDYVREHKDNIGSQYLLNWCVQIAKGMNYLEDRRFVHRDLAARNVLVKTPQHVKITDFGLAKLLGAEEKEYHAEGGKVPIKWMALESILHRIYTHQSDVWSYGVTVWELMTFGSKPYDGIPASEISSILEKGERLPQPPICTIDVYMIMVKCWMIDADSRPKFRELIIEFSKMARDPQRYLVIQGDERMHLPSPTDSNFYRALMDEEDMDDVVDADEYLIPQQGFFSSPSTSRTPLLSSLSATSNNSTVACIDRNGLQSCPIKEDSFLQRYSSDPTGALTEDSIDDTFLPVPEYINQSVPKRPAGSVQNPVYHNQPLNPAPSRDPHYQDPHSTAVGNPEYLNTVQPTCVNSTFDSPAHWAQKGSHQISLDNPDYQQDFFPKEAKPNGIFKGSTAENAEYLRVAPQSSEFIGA
Protocol: as §1, §2, §3

EGFR L833V = EGFR L833V (Homo sapiens, UniProt P00533, L833V); details: read-out: IC50 Values; Ba/F3 cells expressing EGFR L833V, 72 hours
Protocol: as §1, §2, §3

EGFR L861Q = EGFR L861Q (Homo sapiens, UniProt P00533, L861Q); details: read-out: IC50 Values; Ba/F3 cells expressing EGFR L861Q, 72 hours
Protocol: as §1, §2, §3

EGFR Ex19del/C797S = EGFR Ex19del/C797S (Homo sapiens, UniProt P00533, C797S/DEL746-750); details: read-out: IC50 Values; Ba/F3 cells expressing EGFR Ex19del/C797S, 72 hours
Protocol: (§4) The transforming capability of the mutations was then evaluated by sustained cell viability following IL-3 deprivation. Activating EGFR mutant Ba/F3 cells were then screened against EGFR TKIs. Cell viability was determined by the Cell Titer Glo assay.
(§5) Ba/F3 cells expressing acquired atypical mutations spanning exons 18-21 were treated with inhibitors for 72 hours. […] Briefly, stable Ba/F3 cell lines were generated by retroviral transduction of Ba/F3 cell line for 12 hours. […] Three days after transduction, 2 μg/ml puromycin (Invitrogen) was added to the RPMI media. Cell lines were then grown in the absence of IL-3 for two weeks and cell viability was assessed every three days using the Cell Titer Glo assay (Progema).
as §3

EGFR Ex19del G796S = EGFR Ex19del G796S (Homo sapiens, UniProt P00533, DEL746-750/G796S); details: read-out: IC50 Values; Ba/F3 cells expressing EGFR Ex19del G796S, 72 hours
Chain of EGFR Ex19del G796S (P00533 with tags, fused parts or gaps DEL746-750/G796S): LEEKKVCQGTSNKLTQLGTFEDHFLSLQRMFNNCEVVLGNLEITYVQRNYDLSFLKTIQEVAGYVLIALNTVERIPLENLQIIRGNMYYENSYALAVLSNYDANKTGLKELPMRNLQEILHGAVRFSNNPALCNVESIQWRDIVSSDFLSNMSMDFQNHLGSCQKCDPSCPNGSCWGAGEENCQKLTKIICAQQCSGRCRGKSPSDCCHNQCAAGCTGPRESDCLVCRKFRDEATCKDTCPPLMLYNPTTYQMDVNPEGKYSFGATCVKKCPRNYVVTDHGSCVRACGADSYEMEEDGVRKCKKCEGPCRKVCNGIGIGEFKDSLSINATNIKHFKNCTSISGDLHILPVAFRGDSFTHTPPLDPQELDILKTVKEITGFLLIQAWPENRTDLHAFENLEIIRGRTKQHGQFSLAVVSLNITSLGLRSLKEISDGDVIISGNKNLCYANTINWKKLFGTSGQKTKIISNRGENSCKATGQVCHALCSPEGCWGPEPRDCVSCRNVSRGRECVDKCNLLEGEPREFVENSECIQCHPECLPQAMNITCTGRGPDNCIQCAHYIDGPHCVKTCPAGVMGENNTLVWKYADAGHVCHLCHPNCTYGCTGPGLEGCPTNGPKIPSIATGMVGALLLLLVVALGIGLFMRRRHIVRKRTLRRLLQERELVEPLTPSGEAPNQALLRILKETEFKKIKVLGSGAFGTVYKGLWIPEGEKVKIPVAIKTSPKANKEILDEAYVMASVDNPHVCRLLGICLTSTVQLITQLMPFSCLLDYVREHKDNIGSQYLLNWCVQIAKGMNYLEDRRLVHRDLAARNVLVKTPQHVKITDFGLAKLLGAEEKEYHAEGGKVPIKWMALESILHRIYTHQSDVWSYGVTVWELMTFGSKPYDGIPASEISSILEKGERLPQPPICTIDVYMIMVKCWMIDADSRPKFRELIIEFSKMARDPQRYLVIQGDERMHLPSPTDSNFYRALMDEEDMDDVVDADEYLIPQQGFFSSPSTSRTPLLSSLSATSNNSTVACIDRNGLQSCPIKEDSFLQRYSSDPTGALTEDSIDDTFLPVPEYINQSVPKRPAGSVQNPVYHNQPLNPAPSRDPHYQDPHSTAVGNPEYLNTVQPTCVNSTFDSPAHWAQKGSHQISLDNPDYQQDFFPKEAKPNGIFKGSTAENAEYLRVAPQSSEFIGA
Protocol: as §4, §5, §3

EGFR L858R G724S = EGFR L858R G724S (Homo sapiens, UniProt P00533, G724S/L858R); details: read-out: IC50 Values; Ba/F3 cells expressing EGFR L858R G724S, 72 hours
Protocol: as §4, §5, §3

EGFR Ex19del L718V = EGFR Ex19del L718V (Homo sapiens, UniProt P00533, DEL746-750/L718V); details: read-out: IC50 Values; Ba/F3 cells expressing EGFR Ex19del L718V, 72 hours
Chain of EGFR Ex19del L718V (P00533 with tags, fused parts or gaps L718V/DEL746-750): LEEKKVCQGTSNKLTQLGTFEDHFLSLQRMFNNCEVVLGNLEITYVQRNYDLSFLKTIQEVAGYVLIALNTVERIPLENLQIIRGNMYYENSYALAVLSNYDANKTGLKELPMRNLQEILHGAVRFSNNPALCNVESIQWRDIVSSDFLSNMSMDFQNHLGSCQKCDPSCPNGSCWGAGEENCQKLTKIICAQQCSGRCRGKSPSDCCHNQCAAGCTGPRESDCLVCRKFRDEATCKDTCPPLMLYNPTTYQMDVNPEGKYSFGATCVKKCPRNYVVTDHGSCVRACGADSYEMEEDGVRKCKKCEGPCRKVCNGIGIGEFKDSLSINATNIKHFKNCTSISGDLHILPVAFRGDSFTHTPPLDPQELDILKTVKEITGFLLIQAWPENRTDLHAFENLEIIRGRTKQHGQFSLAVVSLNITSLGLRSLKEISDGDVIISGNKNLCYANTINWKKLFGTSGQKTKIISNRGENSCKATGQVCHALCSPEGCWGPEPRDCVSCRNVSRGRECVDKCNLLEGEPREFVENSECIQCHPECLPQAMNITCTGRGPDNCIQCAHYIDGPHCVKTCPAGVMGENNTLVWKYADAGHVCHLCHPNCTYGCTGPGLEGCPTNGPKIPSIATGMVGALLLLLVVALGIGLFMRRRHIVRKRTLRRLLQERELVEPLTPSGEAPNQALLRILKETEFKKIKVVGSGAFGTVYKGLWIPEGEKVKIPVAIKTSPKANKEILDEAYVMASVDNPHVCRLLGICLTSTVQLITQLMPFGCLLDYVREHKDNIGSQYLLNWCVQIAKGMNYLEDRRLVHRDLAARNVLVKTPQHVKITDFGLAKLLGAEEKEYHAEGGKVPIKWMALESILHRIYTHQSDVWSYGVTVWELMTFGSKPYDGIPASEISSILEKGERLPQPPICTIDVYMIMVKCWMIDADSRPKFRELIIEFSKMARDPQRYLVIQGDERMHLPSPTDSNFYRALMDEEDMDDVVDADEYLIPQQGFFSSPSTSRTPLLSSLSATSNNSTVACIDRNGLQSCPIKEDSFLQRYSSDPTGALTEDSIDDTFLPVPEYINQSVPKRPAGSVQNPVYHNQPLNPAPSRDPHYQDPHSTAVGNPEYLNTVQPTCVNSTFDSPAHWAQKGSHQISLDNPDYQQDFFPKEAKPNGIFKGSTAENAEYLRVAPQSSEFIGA
Protocol: as §4, §5, §3

EGFR L858R T790M/C797S = EGFR L858R T790M/C797S (Homo sapiens, UniProt P00533, C797S/L858R/T790M); details: read-out: IC50 Values; Ba/F3 cells expressing EGFR L858R T790M/C797S, 72 hours
Protocol: as §1, §2, §3

EGFR Ex19delT790M L718V = EGFR Ex19delT790M L718V (Homo sapiens, UniProt P00533, DEL746-750/L718V/T790M); details: read-out: IC50 Values; Ba/F3 cells expressing EGFR Ex19delT790M L718V, 72 hours
Protocol: as §1, §2, §3

EGFR Ex19del/T790M/L792H = EGFR Ex19del/T790M/L792H (Homo sapiens, UniProt P00533, DEL746-750/L792H/T790M); details: read-out: IC50 Values; Ba/F3 cells expressing EGFR Ex19del/T790M/L792H, 72 hours
Protocol: as §1, §2, §3

EGFR Ex19delT790M = EGFR Ex19delT790M (Homo sapiens, UniProt P00533, DEL746-750/T790M); details: read-out: IC50 Values; Ba/F3 cells expressing EGFR Ex19delT790M, 72 hours
Protocol: as §1, §2, §3

Chain of EGFR E709K L858R (P00533 25-1210 E709K/L858R): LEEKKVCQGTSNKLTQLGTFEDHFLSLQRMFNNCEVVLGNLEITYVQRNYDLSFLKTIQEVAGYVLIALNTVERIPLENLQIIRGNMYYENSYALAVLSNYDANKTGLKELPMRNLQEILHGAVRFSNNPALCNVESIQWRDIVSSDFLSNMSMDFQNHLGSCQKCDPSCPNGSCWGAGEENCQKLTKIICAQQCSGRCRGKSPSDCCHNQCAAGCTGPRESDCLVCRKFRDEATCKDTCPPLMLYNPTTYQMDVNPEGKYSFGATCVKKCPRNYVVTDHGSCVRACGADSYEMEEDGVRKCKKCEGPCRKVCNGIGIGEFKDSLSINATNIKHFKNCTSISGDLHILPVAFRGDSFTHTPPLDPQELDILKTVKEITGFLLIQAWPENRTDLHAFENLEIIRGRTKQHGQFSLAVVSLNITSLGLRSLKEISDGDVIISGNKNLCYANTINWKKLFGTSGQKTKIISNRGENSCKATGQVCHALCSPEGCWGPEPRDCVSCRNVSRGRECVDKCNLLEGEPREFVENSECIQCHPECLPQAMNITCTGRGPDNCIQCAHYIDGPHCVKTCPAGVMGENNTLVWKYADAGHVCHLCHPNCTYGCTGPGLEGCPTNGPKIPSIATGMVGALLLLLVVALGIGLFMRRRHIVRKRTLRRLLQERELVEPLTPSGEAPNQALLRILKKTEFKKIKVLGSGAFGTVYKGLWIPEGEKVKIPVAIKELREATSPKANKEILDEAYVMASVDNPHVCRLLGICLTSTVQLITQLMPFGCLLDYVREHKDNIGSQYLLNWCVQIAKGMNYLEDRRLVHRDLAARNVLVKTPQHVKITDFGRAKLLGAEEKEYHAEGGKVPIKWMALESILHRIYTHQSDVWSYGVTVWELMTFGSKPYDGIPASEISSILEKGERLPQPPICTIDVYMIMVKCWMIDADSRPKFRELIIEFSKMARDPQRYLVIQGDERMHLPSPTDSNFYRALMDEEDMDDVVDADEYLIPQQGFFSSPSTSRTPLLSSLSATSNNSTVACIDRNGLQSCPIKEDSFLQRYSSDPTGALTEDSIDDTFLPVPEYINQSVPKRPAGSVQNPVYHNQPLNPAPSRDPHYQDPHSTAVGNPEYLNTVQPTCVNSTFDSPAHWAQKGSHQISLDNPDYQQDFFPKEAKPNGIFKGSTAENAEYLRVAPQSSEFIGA

Compound `C=CC(=O)N1CC[C@@H](Oc2nc(Nc3ccc(N4CCC(N5CCN(C)CC5)CC4)cc3)c(C(N)=O)nc2CC)C1` [Naquotinib] has an IC50 (EGFR E709K L858R) of 11 nM, an IC50 (EGFR L718Q) of 734 nM and an IC50 (EGFR G719A/R776C) of 39 nM. The IC50 (EGFR G724S) was 58.1 nM, the IC50 (EGFR l740duplPVAK) was 67.7 nM and the IC50 [1] was 0.58 nM. For the same compound, the IC50 (EGFR S768dupSVD) was 153 nM, the IC50 (EGFR D770insNPG) was 175 nM and the IC50 (EGFR N771dupN G724S) was 375 nM. The IC50 (EGFR L833F) was 411 nM, the IC50 (EGFR L833V) was 402 nM and the IC50 (EGFR L861Q) was 77.4 nM. The IC50 (EGFR Ex19del/C797S) was 1540 nM, the IC50 (EGFR Ex19del G796S) was 53.2 nM and the IC50 (EGFR L858R G724S) was 108 nM. The IC50 (EGFR Ex19del L718V) was 13.9 nM, the IC50 (EGFR L858R T790M/C797S) was 4350 nM and the IC50 (EGFR Ex19delT790M L718V) was 7.72 nM. It also gave an IC50 (EGFR Ex19del/T790M/L792H) of 4.75 nM and an IC50 (EGFR Ex19delT790M) of 1.41 nM.
